Consider 15 molecules from the Kinase Knowledgebase extract (Sharma et al. 2016).

In the test the target is MAPK14 (human) (UniProt Q16539). The experiment in a line: Inhibition of MAPK14 Kinase Activity.
MAPK14 (human), sequence (Q16539 whole entry, looked up): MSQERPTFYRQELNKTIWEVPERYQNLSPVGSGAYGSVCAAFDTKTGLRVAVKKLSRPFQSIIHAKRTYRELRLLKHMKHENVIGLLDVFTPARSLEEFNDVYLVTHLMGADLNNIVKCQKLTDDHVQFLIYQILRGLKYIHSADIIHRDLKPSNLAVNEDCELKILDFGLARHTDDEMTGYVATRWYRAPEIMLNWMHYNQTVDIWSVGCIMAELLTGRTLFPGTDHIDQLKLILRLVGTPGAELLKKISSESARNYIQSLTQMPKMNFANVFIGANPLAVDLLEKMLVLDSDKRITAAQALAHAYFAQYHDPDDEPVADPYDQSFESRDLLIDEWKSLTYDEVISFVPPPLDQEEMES
Consider `CCn1nccc1NC(=O)c1ccc(C)c(Nc2nc(N)nc(NC(C)C)c2C#N)c1`, for which the IC50 is 1.5 nM and the Ki was 1.5 nM.
In the case of `CCn1nccc1NC(=O)c1ccc(C)c(Nc2nc(N)nc(NC3CCCC3)c2C#N)c1`, the IC50 is 1.9 nM and the Ki was found to be 1.9 nM.
In turn, `CCCNc1ncnc(Nc2cc(C(=O)NOC)ccc2C)c1C#N` registered a Ki of 0.97 nM.
`CCn1nccc1NC(=O)c1ccc(C)c(Nc2ncnc(NC(C)C)c2C#N)c1` returned a Ki of 15 nM.
On the same count and under the same terms, the value for `CONC(=O)c1ccc(C)c(Nc2ncnc(NC(C)C)c2C#N)c1` was 0.61 nM; that for `CONC(=O)c1ccc(C)c(Nc2nc(N)nc(N(C)CC(C)(C)C)c2C#N)c1` was 0.05 nM; that for `CNc1nc(Nc2cc(C(=O)NOC)ccc2C)c(C#N)c(N(C)CC(C)(C)C)n1` was 0.047 nM.
Same read-out and setting: the same measure for `Cc1ccc(C(=O)Nc2ccon2)cc1Nc1ncnc(NC(C)C)c1C#N`: 0.41 nM; for `CCn1nccc1NC(=O)c1ccc(C)c(Nc2ncnc(NC3CCCC3)c2C#N)c1`: 14 nM; for `CNc1ncnc(Nc2cc(C(=O)NOC)ccc2C)c1C#N`: 16 nM.
Still for that read-out and setting: the value for `CONC(=O)c1ccc(C)c(Nc2ncnc(N(C)CC(C)(C)C)c2C#N)c1` was 0.15 nM.
With `CONC(=O)c1ccc(C)c(Nc2nc(N3CCCN(C)CC3)nc(N(C)CC(C)(C)C)c2C#N)c1`, the Ki came to 0.057 nM.
Same read-out and setting: the same measure for `Cc1ccc(C(=O)Nc2ccon2)cc1Nc1nc(N)nc(NC2CCCC2)c1C#N`: 0.16 nM; for `Cc1ccc(C(=O)Nc2ccon2)cc1Nc1ncnc(NC2CCCC2)c1C#N`: 1.6 nM.
Same read-out and setting: the same measure for `Cc1ccc(C(=O)Nc2ccon2)cc1Nc1nc(N)nc(NC(C)C)c1C#N`: 0.057 nM.
